# Measured values taken from patent US8927580B2, “Thiosemicarbazone compounds and use in the treatment of cancer” (Oncochel Therapeutics LLC, priority 2010, dated 2015).
# Structures can show the parent of a compound that is named as a salt.
# Assays:
# [1] = test system: CAPAN-2 pancreatic cancer cells; assay: MTT proliferation assay, CAPAN-2; format: cell-based; settings: Homo sapiens; CAPAN-2, MTT, 72 h
# Description: (§1) The pancreatic cancer cell lines, including MIAPaCa-2, PANC 1, CAPAN-2 and CFPAC-1 were a generous gift from Prof. Andrew Biankin (Garvan Institute, NSW, Australia). The MIAPaCa-2, PANC 1 and CFPAC-1 cell lines were grown in DMEM medium (Invitrogen) and CAPAN-2 cells were grown in McCoy's medium (Invitrogen). All media was supplemented with 10% (v/v) fetal calf serum (Invitrogen), 1% (v/v) non-essential amino acids (Invitrogen), 1% (v/v) sodium pyruvate (Invitrogen), 2 mM L-glutamine (Invitrogen), 100 μg/mL of streptomycin (Invitrogen), 100 U/ml penicillin (Invitrogen), and 0.28 μg/mL of fungizone.
# (§2) To further examine the spectrum of anti-proliferative activity, Dp4cycH4mT was tested against pancreatic cancer in vitro, performing MTT proliferation assays with PANC 1, MIAPaCa-2, CFPAC-1 and CAPAN-2 pancreatic cancer cells. As a comparison, currently used treatments for pancreatic cancer including gemcitabine and 5-fluorouracil were also tested. The iron chelator, DFO, was included as a positive control.
# (§3) Table 2A. Anti-proliferative activity of Dp4cycH4mT against pancreatic cancer cell lines. Growth and antiproliferative activity IC50 (μM) values of Dp4cycH4mT in a variety of pancreatic cell lines and in comparison to DFO and the clinically used drugs gemcitabine and 5-fluorouracil as determined by the MTT assay. Cells were seeded and allowed to attach to wells for 24 h and then incubated for 72 h at 37° C. with control medium or the chelators. Results are mean±SD (3 experiments).
# as §3, with “2B.” for “2A.”, “IC90” for “Growth and antiproliferative activity IC50”
# [2] = test system: SK-N-MC neuroepithelioma cells; assay: Iron uptake assay (59Fe uptake from 59Fe-transferrin); format: cell-based, human; settings: 25 μM chelator, 3 h at 37° C., 59Fe-Tf
# Description: Cells were cultured in the same way as for the iron efflux experiments. […] At the end of the incubation the culture dishes were placed on ice, the media aspirated, and the cells washed 4 times with ice cold PBS. Protease (1 mL; 1 mg/mL; Sigma-Aldrich, NSW, Australia) solution was added to each plate and allowed to incubate on ice for 30 min. This facilitated the removal of membrane bound ^59Fe-Tf. Cells were then scraped from the plastic surface using a Teflon spatula and collected in Eppendorf tubes. These were centrifuged at 10000 rpm and 4° C. for 3 min. The supernatant was then transferred into counting tubes and the cell pellet resuspended in PBS before also being transferred into another set of counting tubes. Radioactivity was measured using a Wallac Wizard 3″ Gamma Counter (PerkinElmer, MA, USA). Results are expressed as average ^59Fe content of the cellular fraction as a percentage of the control value.
# [3] = test system: PANC 1 pancreatic cancer cells; assay: MTT proliferation assay, PANC 1; format: cell-based; settings: Homo sapiens; PANC 1, MTT, 72 h
# Description: as §1, §2, §3
# as §3, with “2B.” for “2A.”, “IC90” for “Growth and antiproliferative activity IC50”
# [4] = test system: SK-N-MC neuroepithelioma cells; assay: Iron efflux assay (59Fe release from pre-labeled cells); format: cell-based, human; settings: 25 μM chelator, 3 h at 37° C.
# Description: The culture dishes were then placed on ice, the supernatant containing excess ^59Fe-Tf was aspirated and the cells washed 4 times with ice-cold PBS. […] After 3 h the culture dishes were again placed on ice, the media was collected in counting tubes and this provided a measurement of released ^59Fe. Ice-cold PBS (1 mL) was added to plates containing cells and cells were scraped from the plastic surface using a Teflon spatula and also collected in counting tubes. These tubes represent the intracellular ^59Fe content. Results are expressed as total ^59Fe released as a percentage of total ^59Fe present. Radioactivity was measured using a Wallac Wizard 3″ Gamma Counter (PerkinElmer, MA, USA).
# [5] = test system: MIAPaCa-2 pancreatic cancer cells; assay: MTT proliferation assay, MIAPaCa-2; format: cell-based; settings: Homo sapiens, MIA PaCa-2; MIAPaCa-2, MTT, 72 h
# Description: as §1, §2, §3
# as §3, with “2B.” for “2A.”, “IC90” for “Growth and antiproliferative activity IC50”
# [6] = test system: SK-N-MC neuroepithelioma cell line; assay: MTT anti-proliferative assay in SK-N-MC cells; format: cell-based, human; settings: 72 h at 37° C., mean±SD (3 experiments)
# Description: The cells were maintained in minimum essential media (MEM; Invitrogen, CA, USA) which contained 10% fetal calf serum (FCS; JRH Biosciences, Kansas, USA), 1% non-essential amino acids (Gibco, Victoria, Australia), 1% penicillin/streptomycin/glutamine (Gibco, VIC, Australia) and fungizone ([…]; Squibb Pharmaceuticals, Montreal, Canada).
# The ability of the compounds to inhibit cellular proliferation was assessed initially in SK-N-MC cells by the MTT assay.
# Table 1. […] Cells were seed and allowed to attach to wells for 24 h and then incubated for 72 h at 37° C. with control medium or the chelators.
# [7] = test system: CFPAC-1 pancreatic cancer cells; assay: MTT proliferation assay, CFPAC-1; format: cell-based; settings: Homo sapiens; CFPAC-1, MTT, 72 h
# Description: as §1, §2, §3
# as §3, with “2B.” for “2A.”, “IC90” for “Growth and antiproliferative activity IC50”
# [8] = test system: DMS-53 human lung carcinoma; assay: DMS-53 xenograft in nude mice, oral gavage: tumour growth; format: in vivo, nude mice (BALBc nu/nu); settings: for Tumour weight: 21 days; for net tumour size (% of initial tumour volume): after 21 days
# [9] = DMS-53 xenograft oral study: body and organ weights, haematology, biochemistry, histology; format: in vivo, nude mice (BALBc nu/nu)
# [10] = test system: DMS-53 human lung carcinoma; assay: DMS-53 xenograft in nude mice, i.v. administration: tumour growth; format: in vivo, nude mice (BALBc nu/nu)
# [11] = DMS-53 xenograft i.v. study: body and organ weights, haematology, histology; format: in vivo, nude mice (BALBc nu/nu); settings: for HCT / HGB / PLT / RBC / WBC / Body weight (% of initial weight) / Brain weight / Heart weight / Kidney weight / Liver weight / Spleen weight / weight loss (% of initial body weight): i.v.; for HCT / HGB / PLT / RBC / WBC: average; for weight loss (% of initial body weight): after 25 days
# [12] = test system: PANC 1 human pancreatic carcinoma; assay: PANC 1 xenograft in nude mice: tumour growth; format: in vivo, nude mice (BALBc nu/nu)
# Description: FIG. 5). […] (5 mg/kg) or vehicle control.
# [13] = mouse, in vivo
compound,measurement,setting,value
"CC(=O)N(O)CCCCCNC(=O)CCC(=O)N(O)CCCCCNC(=O)CCC(=O)N(O)CCCCCN [DFO, desferrioxamine]",IC50,[1],7 ± 5.4 µM
same,IC90,[1],> 80 µM
same,cellular 59Fe uptake (% of the control),[2],84%
same,IC50,[3],9.5 ± 1.4 µM
same,IC90,[3],> 80 µM
same,cellular 59Fe mobilised (59Fe released as percentage of total 59Fe),[4],16%
same,IC50,[5],38.7 ± 6.2 µM
same,IC90,[5],> 80 µM
same,IC50,[6]; Homo sapiens,13.4 ± 3.7 µM
same,IC50,[7],14.7 ± 3.1 µM
same,IC90,[7],> 80 µM
"O=C(NN=Cc1c(O)ccc2ccccc12)c1ccncc1 [compound 311, 2-hydroxy-1-naphthylaldehyde isonicotinoyl hydrazone, reference compound]",cellular 59Fe uptake (% of the control),[2],5%
same,IC50,[6],0.72 ± 0.32 µM
"CCN(C)C(=S)NN=C(c1ccccn1)c1ccccn1 [Dp4e4mT.HCl, di-2-pyridylketone 4-ethyl-4-methyl-3-thiosemicarbazone]",Tumour weight,[8]; 2.5 mg/kg,0.63 g
same,net tumour size (% of initial tumour volume),[8]; 2.5 mg/kg,645%
same,net tumour size (% of initial tumour volume),[8]; 5 mg/kg,733%
same,Tumour weight,[8]; 10 mg/kg,0.46 g
same,myocardial lesions (Gomori-Trichrome stain),"[9]; Dp44mT 0.75 mg/kg, Dp4e4mT.HCl 3 weeks at 2.5, 5, 7.5 and 10 mg/kg oral",did not induce myocardial lesions
same,"histology of the liver, spleen, kidney, brain or tumour (H & E) vs control","[9]; Dp44mT 2 weeks at 0.75 mg/kg, Dp4e4mT.HCl 3 weeks at 2.5, 5, 7.5 and 10 mg/kg oral",no significant differences
same,Total Iron-Binding Capacity (TIBC),"[9]; oral gavage 21 days, 5 mg/kg",53.1 ± 1.2 µmol/L
same,Alkaline Phosphatase (ALP),"[9]; oral gavage 21 days, 10 mg/kg",89.5±4.5 U/L
same,Body weight (% initial),"[9]; oral, 10 mg/kg",94 % initial
same,Tumour weight,[10]; 1.5 mg/kg,0.48 ± 0.6 g
same,Tumour weight,[10]; 4 mg/kg,0.11 ± 0.09 g
same,Tumour weight,[10]; 6 mg/kg,0.04 ± 0.03 g
same,"histology of the liver, spleen, kidney, brain or tumour (H & E) vs control","[11]; 2 weeks i.v., Dp44mT 0.75 mg/kg, Dp4e4mT.HCl 4 and 6 mg/kg",no significant differences
same,myocardial lesions (Gomori-Trichrome stain),"[11]; 2 weeks i.v., Dp44mT 0.75 mg/kg, Dp4e4mT.HCl 4 or 6 mg/kg",did not induce myocardial lesions
same,"change in red blood cell count, haemoglobin or white blood cell count","[11]; after 2 weeks, Dp44mT 0.75 mg/kg, Dp4e4mT.HCl 1.5, 4 or 6 mg/kg i.v.",no significant change
same,HCT,[11]; 1.5 mg,0.4
same,HGB,[11]; 1.5 mg,150.60 g/L
same,PLT,[11]; 1.5 mg,766.4 10 × 9 cells/L
same,RBC,[11]; 1.5 mg,8.76 10 × 12 cells/L
same,WBC,[11]; 1.5 mg,3.34 10 × 9 cells/L
same,Body weight (% of initial weight),[11]; 1.5 mg/kg,95.14 ± 0.97 % initial weight
same,Brain weight,[11]; 1.5 mg/kg,0.26 ± 0.13 g
same,Heart weight,[11]; 1.5 mg/kg,0.1 ± 0.004 g
same,Kidney weight,[11]; 1.5 mg/kg,0.26 ± 0.01 g
same,Liver weight,[11]; 1.5 mg/kg,1.01 ± 0.02 g
same,Spleen weight,[11]; 1.5 mg/kg,0.11 ± 0.01 g
same,HCT,[11]; 4 mg,0.47
same,HGB,[11]; 4 mg,153.75 g/L
same,PLT,[11]; 4 mg,1224.5 10 × 9 cells/L
same,RBC,[11]; 4 mg,10.74 10 × 12 cells/L
same,WBC,[11]; 4 mg,2.94 10 × 9 cells/L
same,Body weight (% of initial weight),[11]; 4 mg/kg,99.41 ± 1.75 % initial weight
same,Brain weight,[11]; 4 mg/kg,0.36 ± 0.01 g
same,Heart weight,[11]; 4 mg/kg,0.1 ± 0.01 g
same,Kidney weight,[11]; 4 mg/kg,0.26 ± 0.01 g
same,Liver weight,[11]; 4 mg/kg,1.03 ± 0.02 g
same,Spleen weight,[11]; 4 mg/kg,0.08 ± 0.003 g
same,weight loss (% of initial body weight),[11]; 4 mg/kg,0.6%
same,HCT,[11]; 6 mg,0.41
same,HGB,[11]; 6 mg,132.33 g/L
same,PLT,[11]; 6 mg,1238 10 × 9 cells/L
same,RBC,[11]; 6 mg,9.33 10 × 12 cells/L
same,WBC,[11]; 6 mg,4.63 10 × 9 cells/L
same,Body weight (% of initial weight),[11]; 6 mg/kg,93.38 ± 3.96 % initial weight
same,Brain weight,[11]; 6 mg/kg,0.36 ± 0.03 g
same,Heart weight,[11]; 6 mg/kg,0.11 ± 0.01 g
same,Kidney weight,[11]; 6 mg/kg,0.27 ± 0.01 g
same,Liver weight,[11]; 6 mg/kg,1.1 ± 0.08 g
same,Spleen weight,[11]; 6 mg/kg,0.089 ± 0.01 g
same,weight loss (% of initial body weight),[11]; 6 mg/kg,7%
O=c1[nH]cc(F)c(=O)[nH]1 [5-fluorouracil],IC50,[1],59.2 ± 24.2 µM
same,IC90,[1],> 80 µM
same,IC50,[3],62.3 ± 6.5 µM
same,IC90,[3],> 20 µM
same,IC50,[5],24.3 ± 6.3 µM
same,IC90,[5],> 5 µM
same,IC50,[7],41.2 ± 1.1 µM
same,IC90,[7],> 40 µM
"CN(C(=S)NN=C(c1ccccn1)c1ccccn1)C1CCCCC1 [Dp4cycH4mT.HCl, di-2-pyridylketone 4-cyclohexyl-4-methyl-3-thiosemicarbazone]",average tumour size (% of the original tumour size),"[12]; after 6 weeks, 5 mg/kg i.v. 5 days/week",112%
same,final tumour weight,"[12]; after 43 days, 5 mg/kg i.v.",40 ± 12 mg
same,MYOCARDIUM Fibrosis,[13],−
same,MYOCARDIUM HP (histopathological changes),[13],N
same,SPLEEN HPC (score for the presence of haematopoietic cells in the splenic red pulp),[13],N
same,iron deposits in the kidney,[13],iron deposits were observed
